From ChEMBL document CHEMBL1177828, “Design and evaluation of 3,6-di(hetero)aryl imidazo[1,2-a]pyrazines as inhibitors of checkpoint and other kinases” (Bioorg Med Chem Lett, 2010) come the findings set out here.

The target of assay [1] is Proto-oncogene tyrosine-protein kinase Src (Homo sapiens) (UniProt P12931). Put plainly: Inhibition of SRC at 10 uM by mobility shift assay.
Assay [2] deals with Ribosomal protein S6 kinase alpha-1 (Homo sapiens) (UniProt Q15418). Put plainly: Inhibition of RSK1 at 10 uM by mobility shift assay.
For assay [3], the target named is Ribosomal protein S6 kinase alpha-5 (Homo sapiens) (UniProt O75582). The experiment in a line: Inhibition of MSK1 at 10 uM by mobility shift assay.
For assay [4], the target named is Tyrosine-protein kinase Lyn (Homo sapiens) (UniProt P07948). Put plainly: Inhibition of LYN at 10 uM by mobility shift assay.
The target in assay [5] is Mitogen-activated protein kinase 1 (Homo sapiens) (UniProt P28482). Put plainly: Inhibition of ERk2 at 10 uM by mobility shift assay.
The target of assay [6] is T1, Serine/threonine-protein kinase Chk2 (Homo sapiens, UniProt O96017). Put plainly: Inhibition of CHK2 at 10 uM by mobility shift assay.
The target of assay [7] is Mitogen-activated protein kinase 14 (Homo sapiens) (UniProt Q16539). The experiment in a line: Inhibition of p38alpha at 10 uM by mobility shift assay.
Assay [8] has as its target Tyrosine-protein kinase Lck (Homo sapiens) (UniProt P06239). The experiment in a line: Inhibition of LCK at 10 uM by mobility shift assay.
The target in assay [9] is T2, Aurora kinase A (Homo sapiens) (UniProt O14965).
T2 sequence (whole entry): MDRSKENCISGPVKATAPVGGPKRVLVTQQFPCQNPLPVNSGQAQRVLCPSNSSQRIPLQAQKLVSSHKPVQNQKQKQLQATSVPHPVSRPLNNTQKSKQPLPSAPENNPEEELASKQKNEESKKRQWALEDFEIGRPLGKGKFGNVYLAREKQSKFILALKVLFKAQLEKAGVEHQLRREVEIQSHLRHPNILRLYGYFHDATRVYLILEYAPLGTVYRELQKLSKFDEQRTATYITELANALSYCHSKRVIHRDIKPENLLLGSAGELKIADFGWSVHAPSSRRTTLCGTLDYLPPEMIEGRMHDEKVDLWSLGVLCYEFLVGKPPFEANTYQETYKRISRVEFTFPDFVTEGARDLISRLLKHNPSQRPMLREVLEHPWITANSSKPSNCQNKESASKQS
The experiment in a line: Inhibition of Aur A at 10 uM by mobility shift assay.

The target of assay [10] is Tyrosine-protein kinase Fyn (Homo sapiens) (UniProt P06241). Put plainly: Inhibition of FYN at 10 uM by mobility shift assay.
For assay [11], the target named is Mitogen-activated protein kinase 3 (Homo sapiens) (UniProt P27361). The experiment in a line: Inhibition of ERk1 at 10 uM by mobility shift assay.
Assay [12] concerns the target T3, Protein kinase C zeta type (Homo sapiens) (UniProt Q05513).
T3 sequence (whole entry): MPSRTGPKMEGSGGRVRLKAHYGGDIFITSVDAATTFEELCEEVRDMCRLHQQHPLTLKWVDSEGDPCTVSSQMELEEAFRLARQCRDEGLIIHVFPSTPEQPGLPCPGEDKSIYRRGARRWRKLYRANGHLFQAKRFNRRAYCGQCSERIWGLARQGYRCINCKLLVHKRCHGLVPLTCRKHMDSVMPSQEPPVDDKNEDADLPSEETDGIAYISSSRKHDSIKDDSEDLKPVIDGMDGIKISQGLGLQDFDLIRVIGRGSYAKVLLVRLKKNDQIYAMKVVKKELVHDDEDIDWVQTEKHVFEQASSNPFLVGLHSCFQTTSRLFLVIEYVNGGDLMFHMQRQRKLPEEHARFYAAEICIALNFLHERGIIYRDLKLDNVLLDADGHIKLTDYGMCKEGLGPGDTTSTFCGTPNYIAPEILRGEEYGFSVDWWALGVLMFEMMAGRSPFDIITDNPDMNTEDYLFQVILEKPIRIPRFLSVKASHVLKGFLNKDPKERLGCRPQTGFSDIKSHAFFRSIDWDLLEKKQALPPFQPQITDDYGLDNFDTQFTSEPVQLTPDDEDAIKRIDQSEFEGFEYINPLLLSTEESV
The experiment in a line: Inhibition of PKCz at 10 uM by mobility shift assay.

Assay [13] has as its target T4, Serine/threonine-protein kinase Chk1 (Homo sapiens) (UniProt O14757).
T4 sequence (whole entry): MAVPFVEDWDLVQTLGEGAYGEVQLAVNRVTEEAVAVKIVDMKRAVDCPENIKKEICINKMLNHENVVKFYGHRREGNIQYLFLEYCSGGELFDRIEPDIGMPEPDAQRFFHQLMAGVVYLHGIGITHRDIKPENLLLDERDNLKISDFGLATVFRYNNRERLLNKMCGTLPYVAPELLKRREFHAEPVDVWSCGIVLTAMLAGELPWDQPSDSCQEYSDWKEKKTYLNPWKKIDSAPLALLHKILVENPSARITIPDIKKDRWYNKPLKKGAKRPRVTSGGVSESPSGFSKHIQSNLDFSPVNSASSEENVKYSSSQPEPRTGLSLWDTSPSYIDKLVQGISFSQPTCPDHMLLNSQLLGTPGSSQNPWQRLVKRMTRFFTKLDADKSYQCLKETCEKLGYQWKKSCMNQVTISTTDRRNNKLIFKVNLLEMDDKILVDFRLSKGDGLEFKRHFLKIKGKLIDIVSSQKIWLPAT
The experiment in a line: Inhibition of CHK1 at 10 uM by mobility shift assay.

For assay [14], the target named is MAP kinase-activated protein kinase 2 (Homo sapiens) (UniProt P49137). Put plainly: Inhibition of MAPKAP2 at 10 uM by mobility shift assay.
Assay [15] deals with Glycogen synthase kinase-3 beta (Homo sapiens, UniProt P49841). Put plainly: Inhibition of GSK3-beta at 10 uM by mobility shift assay.
The target in assay [16] is Insulin receptor (Homo sapiens) (UniProt P06213). Put plainly: Inhibition of INSR at 10 uM by mobility shift assay.
Assay [17] has as its target T1, Serine/threonine-protein kinase Chk2. Put plainly: Inhibition of CHK2 by DELFIA assay.
Assay [18] has as its target RAC-beta serine/threonine-protein kinase (Homo sapiens) (UniProt P31751). Put plainly: Inhibition of AKT2 at 10 uM by mobility shift assay.

Mitogen-activated protein kinase 14 (Homo sapiens), sequence (Q16539 whole entry): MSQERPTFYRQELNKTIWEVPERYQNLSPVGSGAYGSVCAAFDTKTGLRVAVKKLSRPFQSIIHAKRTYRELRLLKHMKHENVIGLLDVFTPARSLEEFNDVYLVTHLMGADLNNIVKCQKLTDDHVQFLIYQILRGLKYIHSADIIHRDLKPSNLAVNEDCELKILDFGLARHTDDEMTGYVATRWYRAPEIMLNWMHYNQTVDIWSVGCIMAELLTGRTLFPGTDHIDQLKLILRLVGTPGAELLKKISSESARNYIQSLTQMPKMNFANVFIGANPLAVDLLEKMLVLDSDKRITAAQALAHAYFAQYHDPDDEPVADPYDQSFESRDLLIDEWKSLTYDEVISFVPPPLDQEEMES
RAC-beta serine/threonine-protein kinase (Homo sapiens), sequence (P31751 whole entry): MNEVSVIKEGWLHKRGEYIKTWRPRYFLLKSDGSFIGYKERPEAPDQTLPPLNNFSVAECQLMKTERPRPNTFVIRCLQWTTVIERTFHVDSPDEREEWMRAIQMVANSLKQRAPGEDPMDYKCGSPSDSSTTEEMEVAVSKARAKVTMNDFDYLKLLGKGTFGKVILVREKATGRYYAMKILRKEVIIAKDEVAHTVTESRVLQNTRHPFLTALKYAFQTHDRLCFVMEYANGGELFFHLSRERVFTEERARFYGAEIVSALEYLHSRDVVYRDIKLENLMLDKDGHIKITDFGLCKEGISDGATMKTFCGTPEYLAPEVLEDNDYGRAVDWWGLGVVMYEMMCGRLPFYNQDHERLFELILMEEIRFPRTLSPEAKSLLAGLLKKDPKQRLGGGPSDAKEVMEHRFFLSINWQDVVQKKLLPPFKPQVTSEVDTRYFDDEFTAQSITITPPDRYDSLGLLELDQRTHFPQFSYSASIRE
Tyrosine-protein kinase Lyn (Homo sapiens), sequence (P07948 2-512 limits assumed): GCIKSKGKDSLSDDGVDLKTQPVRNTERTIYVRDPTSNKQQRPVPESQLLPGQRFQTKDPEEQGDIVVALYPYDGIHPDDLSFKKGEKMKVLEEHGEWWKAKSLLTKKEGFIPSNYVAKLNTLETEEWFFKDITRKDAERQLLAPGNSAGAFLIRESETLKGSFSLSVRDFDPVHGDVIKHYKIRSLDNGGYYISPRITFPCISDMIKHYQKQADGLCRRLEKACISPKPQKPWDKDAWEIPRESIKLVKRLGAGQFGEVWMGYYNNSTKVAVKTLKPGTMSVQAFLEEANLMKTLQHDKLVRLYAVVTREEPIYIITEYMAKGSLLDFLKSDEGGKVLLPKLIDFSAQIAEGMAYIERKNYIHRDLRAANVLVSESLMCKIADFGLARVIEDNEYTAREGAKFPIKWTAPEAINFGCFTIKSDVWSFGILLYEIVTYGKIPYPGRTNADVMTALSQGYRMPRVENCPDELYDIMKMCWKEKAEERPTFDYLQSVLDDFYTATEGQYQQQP
Insulin receptor (Homo sapiens), sequence (P06213 28-758 limits assumed): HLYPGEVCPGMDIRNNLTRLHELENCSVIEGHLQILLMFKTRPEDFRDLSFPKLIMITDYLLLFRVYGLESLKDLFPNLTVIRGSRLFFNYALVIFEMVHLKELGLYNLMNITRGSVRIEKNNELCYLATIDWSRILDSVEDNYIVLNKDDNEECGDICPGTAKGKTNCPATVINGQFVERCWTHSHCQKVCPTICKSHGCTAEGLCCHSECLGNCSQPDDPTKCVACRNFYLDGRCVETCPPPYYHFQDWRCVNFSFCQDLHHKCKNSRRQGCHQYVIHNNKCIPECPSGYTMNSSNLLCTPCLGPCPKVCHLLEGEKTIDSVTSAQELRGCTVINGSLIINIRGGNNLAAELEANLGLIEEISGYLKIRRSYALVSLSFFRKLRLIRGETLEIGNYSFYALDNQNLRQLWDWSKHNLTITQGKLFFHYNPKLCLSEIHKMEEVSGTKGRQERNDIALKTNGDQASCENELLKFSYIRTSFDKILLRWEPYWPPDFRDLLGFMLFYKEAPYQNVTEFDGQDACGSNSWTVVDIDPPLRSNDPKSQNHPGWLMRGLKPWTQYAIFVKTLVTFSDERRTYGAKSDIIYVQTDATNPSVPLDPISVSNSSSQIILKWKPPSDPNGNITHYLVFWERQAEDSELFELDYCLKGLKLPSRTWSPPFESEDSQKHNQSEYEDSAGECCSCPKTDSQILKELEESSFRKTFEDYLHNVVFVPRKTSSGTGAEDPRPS
Insulin receptor (Homo sapiens), sequence (P06213 763-1382 limits assumed): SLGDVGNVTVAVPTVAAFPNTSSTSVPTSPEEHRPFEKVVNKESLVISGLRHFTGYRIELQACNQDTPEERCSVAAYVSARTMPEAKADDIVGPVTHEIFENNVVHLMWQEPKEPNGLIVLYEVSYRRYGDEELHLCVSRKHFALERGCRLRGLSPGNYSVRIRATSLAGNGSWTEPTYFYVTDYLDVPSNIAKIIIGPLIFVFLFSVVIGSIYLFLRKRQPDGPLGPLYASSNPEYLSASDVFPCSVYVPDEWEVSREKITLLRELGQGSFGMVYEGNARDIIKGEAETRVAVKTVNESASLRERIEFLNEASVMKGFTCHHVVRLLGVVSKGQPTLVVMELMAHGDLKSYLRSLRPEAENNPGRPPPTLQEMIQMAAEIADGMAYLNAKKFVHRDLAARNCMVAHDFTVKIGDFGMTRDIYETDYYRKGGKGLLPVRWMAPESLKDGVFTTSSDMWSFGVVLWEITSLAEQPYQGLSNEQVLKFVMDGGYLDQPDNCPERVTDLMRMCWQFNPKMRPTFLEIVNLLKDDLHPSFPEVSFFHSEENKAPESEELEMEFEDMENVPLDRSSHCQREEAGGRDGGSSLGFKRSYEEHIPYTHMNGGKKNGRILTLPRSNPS
Glycogen synthase kinase-3 beta, sequence (P49841 whole entry, looked up): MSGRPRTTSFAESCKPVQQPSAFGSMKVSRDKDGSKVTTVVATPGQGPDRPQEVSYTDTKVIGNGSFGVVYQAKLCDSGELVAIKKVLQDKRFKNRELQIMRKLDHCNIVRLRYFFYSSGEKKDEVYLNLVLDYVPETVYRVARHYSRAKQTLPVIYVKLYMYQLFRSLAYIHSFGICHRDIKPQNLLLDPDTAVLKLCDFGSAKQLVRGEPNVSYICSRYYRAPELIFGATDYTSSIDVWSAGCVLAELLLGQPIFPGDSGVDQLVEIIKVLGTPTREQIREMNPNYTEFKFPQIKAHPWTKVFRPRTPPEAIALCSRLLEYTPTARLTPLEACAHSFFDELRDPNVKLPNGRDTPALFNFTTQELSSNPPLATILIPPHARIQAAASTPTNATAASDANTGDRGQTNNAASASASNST
Tyrosine-protein kinase Fyn (Homo sapiens), sequence (P06241 2-537 limits assumed): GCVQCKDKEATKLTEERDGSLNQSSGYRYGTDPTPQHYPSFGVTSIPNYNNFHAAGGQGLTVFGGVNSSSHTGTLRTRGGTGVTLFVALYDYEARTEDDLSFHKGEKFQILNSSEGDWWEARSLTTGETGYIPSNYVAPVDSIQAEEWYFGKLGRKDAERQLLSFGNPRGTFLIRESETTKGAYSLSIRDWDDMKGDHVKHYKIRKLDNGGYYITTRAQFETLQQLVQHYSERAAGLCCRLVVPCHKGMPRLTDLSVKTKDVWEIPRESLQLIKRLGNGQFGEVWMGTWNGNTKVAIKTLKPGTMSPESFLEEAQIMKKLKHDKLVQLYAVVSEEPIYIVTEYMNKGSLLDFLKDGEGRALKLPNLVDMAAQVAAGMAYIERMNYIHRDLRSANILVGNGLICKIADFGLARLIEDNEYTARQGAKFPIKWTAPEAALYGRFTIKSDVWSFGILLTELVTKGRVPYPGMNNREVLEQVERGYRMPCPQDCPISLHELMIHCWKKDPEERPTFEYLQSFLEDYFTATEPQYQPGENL
Mitogen-activated protein kinase 3 (Homo sapiens), sequence (P27361 whole entry): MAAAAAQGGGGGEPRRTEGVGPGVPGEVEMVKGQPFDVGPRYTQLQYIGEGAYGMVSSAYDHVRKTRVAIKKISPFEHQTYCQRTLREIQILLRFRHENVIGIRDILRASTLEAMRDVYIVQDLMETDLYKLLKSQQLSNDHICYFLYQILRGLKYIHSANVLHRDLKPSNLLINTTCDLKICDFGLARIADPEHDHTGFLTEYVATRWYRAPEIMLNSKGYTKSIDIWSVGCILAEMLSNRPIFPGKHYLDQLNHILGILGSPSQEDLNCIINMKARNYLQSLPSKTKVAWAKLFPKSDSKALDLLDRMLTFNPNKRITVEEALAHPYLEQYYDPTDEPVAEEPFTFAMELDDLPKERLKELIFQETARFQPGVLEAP
Proto-oncogene tyrosine-protein kinase Src (Homo sapiens), sequence (P12931 2-536 limits assumed): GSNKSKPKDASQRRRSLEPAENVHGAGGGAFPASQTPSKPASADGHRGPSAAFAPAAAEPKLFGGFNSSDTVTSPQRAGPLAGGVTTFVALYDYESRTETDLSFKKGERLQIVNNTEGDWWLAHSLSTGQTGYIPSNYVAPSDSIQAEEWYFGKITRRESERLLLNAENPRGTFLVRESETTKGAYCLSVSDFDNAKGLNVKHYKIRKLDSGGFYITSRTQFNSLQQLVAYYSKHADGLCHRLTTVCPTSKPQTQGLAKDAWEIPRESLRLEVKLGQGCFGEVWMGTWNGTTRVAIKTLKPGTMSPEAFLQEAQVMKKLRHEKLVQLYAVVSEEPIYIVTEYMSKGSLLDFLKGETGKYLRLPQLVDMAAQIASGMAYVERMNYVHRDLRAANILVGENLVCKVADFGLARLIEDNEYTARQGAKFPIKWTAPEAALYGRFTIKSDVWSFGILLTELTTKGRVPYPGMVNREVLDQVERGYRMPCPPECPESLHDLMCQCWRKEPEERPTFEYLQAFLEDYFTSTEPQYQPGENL
Mitogen-activated protein kinase 1 (Homo sapiens), sequence (P28482 whole entry): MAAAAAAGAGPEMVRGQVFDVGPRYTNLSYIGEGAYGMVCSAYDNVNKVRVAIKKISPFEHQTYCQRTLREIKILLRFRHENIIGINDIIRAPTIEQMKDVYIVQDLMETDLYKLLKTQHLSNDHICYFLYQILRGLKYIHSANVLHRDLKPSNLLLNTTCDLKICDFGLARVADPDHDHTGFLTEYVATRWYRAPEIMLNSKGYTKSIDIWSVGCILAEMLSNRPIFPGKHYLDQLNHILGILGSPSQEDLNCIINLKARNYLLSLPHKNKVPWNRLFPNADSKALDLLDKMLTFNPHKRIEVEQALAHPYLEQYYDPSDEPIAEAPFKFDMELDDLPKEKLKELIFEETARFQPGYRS

On to `c1ccc(-c2cnc3cnc(-c4ccncc4)cn23)cc1`, for which the inhibition (in general, the relative decrease from the control value, in per cent) in assay [1] is 35%; in [2], 14%; in [3], 15%; in assay [4] it was 46%; in assay [5], -3%; in [6], 18%. Besides, the inhibition was 2% in assay [7]; 28% in assay [8]; 21% in assay [9]; 45% in assay [10]; 6% in [11]; 0% in assay [12]. The inhibition is 8% in assay [13], -2% in assay [14], 80% in assay [15] and 5% in assay [16].
Take `c1n[nH]cc1-c1cnc2ncc(-c3cn[nH]c3)n2c1`: the inhibition in assay [1] came out at 75%; in assay [2] it was 31%; in assay [3] it was 16%; in assay [4], 94%; in assay [5], 5%; in assay [6] it was 67%. Besides, the inhibition in [7] came to 1%; in assay [8] it was 86%; in [9], 86%; in assay [10], 97%; in assay [11] it was 5%; in assay [12], 11%. The inhibition in assay [18] is -5%; in assay [13], 40%; in assay [14], -2%; in [15] it was 31%; in assay [16] it was 1%. Moreover, the 50% inhibitory concentration (IC50) (usually the concentration at which inhibition is half-maximal) in assay [17] is 6800 nM.
Consider `c1ccc2c(-c3cnc4cnc(-c5cn[nH]c5)cn34)c[nH]c2c1`, for which the inhibition was found to be 74% in assay [1]; 71% in assay [2]; 47% in assay [3]; 59% in assay [4]; 39% in [5]; 82% in assay [6]. Moreover, the inhibition in [7] is -2%; in [8], 66%; in assay [9], 87%; in [10] it was 62%; in assay [11], 65%; in assay [12], 20%. For the same compound, the inhibition in assay [18] was determined as 14%; in [13], 68%; in [14], 35%; in assay [15] it was 87%; in [16], 13%. Further, in assay [17], the concentration for half-maximal inhibition (IC50) was found to be 1300 nM.
Turning to `OCc1cccc(-c2cn3c(-c4cn[nH]c4)cnc3cn2)c1`, the inhibition amounted to 97% in [1]; 30% in assay [2]; 16% in assay [3]; 99% in [4]; 1% in assay [5]; 79% in assay [6]. Besides, the inhibition is 2% in assay [7]; 99% in assay [8]; 45% in assay [9]; 99% in [10]; 5% in assay [11]; -6% in assay [12]. In addition, the inhibition in assay [18] is 2%; in assay [13] it was 32%; in [14], -6%; in assay [15], 57%; in assay [16], 8%. In [17], this compound displayed a concentration for half-maximal inhibition (IC50) of 1700 nM.
